{
  "source": "patent US20250387329A1",
  "about": "(priority 2022, published 2025)",
  "key": {"[1]": {"experiment": "Solubility study with different ionic strengths at pH 7.4", "settings": "phosphate buffer with sodium chloride, pH 7.4, aqueous buffer, thermodynamic from solid, Concentration of Orellanine, stirred 24 hours at room temperature", "procedure": "Solubility Study with Different Ionic Strengths at pH 7.4\nThe ionic strength of the NaH2PO4—Na2HPO4 buffer was adjusted by adding sodium chloride. The ionic strength of the NaH2PO4—Na2HPO4 buffer at 50 mM was estimated at around 130 mM. The proportion of sodium chloride in added to the buffers was 0.41%, 0.98%, and 2.15%.\n(§1) The suspension was then stirred at 400 rpm for 24 hours at room temperature. Each suspension was filtered through a 0.2 μm PVDF syringe filter."}, "[2]": {"experiment": "Solubility study with different buffer concentrations at pH 7.4", "settings": "phosphate buffer, pH 7.4, aqueous buffer, thermodynamic from solid; for solubility thermodynamic at 24 h: Concentration of Orellanine, pH adjusted to 7.4 after 3 hours, stirred 24 hours at room temperature", "procedure": "Solubility Study with Different Buffer Concentrations at pH 7.4\nThe impact of buffer concentration was assessed. Three buffers were used: • Phosphate buffer pH 7.4 at 25 mM-prepared from 0.95 ml of NaH2PO4 (0.1M) and 4.05 ml of Na2HPO4 (0.1M), adjusted to 20 ml with WFI. • Phosphate buffer pH 7.4 at 50 mM-prepared from 19 ml of NaH2PO4 (0.1M) and 81 ml of Na2HPO4 (0.1M), adjusted to 200 ml with WFI. • Phosphate buffer pH 7.4 at 100 mM-prepared from 38 ml NaH2PO4 (0.1M) and 162 ml of Na2HPO4 (0.1M), adjusted to 200 ml with WFI.\n(§2) The pH of each buffer was adjusted with a pH meter and sodium hydroxide or hydrochloric acid at 0.2M.\nas §1"}, "[3]": {"experiment": "Formulation adjustment: solubility in selected buffers plus 0.70% NaCl, pH adjusted twice", "settings": "pH 7.4, aqueous buffer, thermodynamic from solid", "procedure": "Two buffers were selected: NaH2PO4—Na2HPO4 pH 7.4 and Citrate-Na2HPO4 PH 7.4 at 50 mM, each with addition of 0.70% sodium chloride. Adding 0.70% sodium chloride provides a solution close to isotonicity.\nFormulations were prepared by weighing 40 mg of Orellanine into a 5 ml vial, adding 2 ml of buffer, stirring the suspension for 1 hour, adjusting the pH to 7.4 with sodium hydroxide (0.2M), stirring the suspension at 400 rpm for 24 hours at room temperature, and adjusting the pH to 7.4 with sodium hydroxide (0.2M). Each suspension was filtered through a 0.2 μm PVDF syringe filter."}, "[4]": {"experiment": "Solubility study with different buffer salts at pH 7.4", "settings": "for solubility thermodynamic at 24 h: pH 7.4, aqueous buffer, thermodynamic from solid", "procedure": "Solubility Study with Different Buffer Salts at pH 7.4\nFour buffers at pH 7.4 and 50 mM were assessed: • Phosphate buffer pH 7.4 at 50 mM-prepared from 19 ml of NaH2PO4 (0.1M) and 81 ml of Na2HPO4 (0.1M), adjusted to 200 ml with WFI. • Phosphate buffer pH 7.4 at 50 mM-prepared from 28.1 ml of KH2PO4 (0.2M) and 21.9 ml of NaOH (0.2M) adjusted to 200 ml with WFI. • Tris-HCl buffer pH 7.4 at 50 mM-prepared from 54.7 ml of tris(hydroxymethyl)aminomethane (0.1M) and 45.3 ml of hydrochloric acid (0.1M), adjusted to 200 ml with WFI. • Citrate phosphate buffer pH 7.4 at 50 mM-prepared from 2.4 ml of citric acid monohydrate (0.2M) and 47.6 ml of Na2HPO4 (0.2M), adjusted to 200 ml with WFI.\nas §2, §1"}, "[5]": {"system": "human renal cancer cells", "settings": "cells derived from a primary tumor or from metastatic tumor tissue; disclosed in WO 2010/040750; cited from earlier work"}, "[6]": {"experiment": "Solubility study with buffer (pH dependent solubility testing)", "settings": "thermodynamic from solid", "procedure": "Solubility Study with Buffer (pH Dependent Solubility Testing)\nA phase solubility study was performed for different buffers to analyse the effect of pH on the solubility of Orellanine. Four buffers were tested: • Acetate buffer pH 4.5 at 50 mM-prepared from 1.81 g sodium acetate and 14 ml of acetic acid (2N), adjusted up to 11 with water for injection (WFI). • Phosphate buffer pH 5.8 at 50 mM-prepared from 92 ml of NaH2PO4 and 8 ml of Na2HPO4, adjusted to 200 ml with WFI. • Phosphate buffer pH 6.8 at 50 mM-prepared from 51 ml of NaH2PO4 and 49 ml of Na2HPO4, adjusted to 200 ml with WFI. • Phosphate buffer pH 7.4 at 50 mM-prepared from 19 ml of NaH2PO4 and 81 ml of Na2HPO4, adjusted to 200 ml with WFI.\nas §2\nEach suspension was centrifuged at 5300 rpm for 15 minutes. The supernatant was filtered with a 0.45 μm nylon filter."}},
  "data": [
    {"smiles": "[O-][n+]1ccc(O)c(O)c1-c1c(O)c(O)cc[n+]1[O-]", "note": "[Orellanine]", "values": [
      {"measurement": "solubility thermodynamic at 24 h", "setting": "[1]; NaH2PO4—Na2HPO4 pH 7.4 at 50 mM plus 0.41% NaCl, final pH 7.26, 205 mOsm", "result": 5.31, "unit": "mg/mL"},
      {"measurement": "solubility thermodynamic at 24 h", "setting": "[1]; NaH2PO4—Na2HPO4 pH 7.4 at 50 mM plus 0.98% NaCl, final pH 7.19, 328 mOsm", "result": 5.9, "unit": "mg/mL"},
      {"measurement": "solubility thermodynamic at 24 h", "setting": "[1]; NaH2PO4—Na2HPO4 pH 7.4 at 50 mM plus 2.15% NaCl, final pH 7.30, 595 mOsm", "result": 6.43, "unit": "mg/mL"},
      {"measurement": "solubility at 24 h", "setting": "[2]", "result": "3.7 to 4.9", "unit": "mg/mL"},
      {"measurement": "solubility thermodynamic at 24 h", "setting": "[2]; NaH2PO4—Na2HPO4 pH 7.4 25 mM, final pH 7.29, 92 mOsm", "result": 3.68, "unit": "mg/mL"},
      {"measurement": "solubility thermodynamic at 24 h", "setting": "[2]; NaH2PO4—Na2HPO4 pH 7.4 50 mM, final pH 7.33, 150 mOsm", "result": 4.88, "unit": "mg/mL"},
      {"measurement": "solubility thermodynamic at 24 h", "setting": "[2]; NaH2PO4—Na2HPO4 pH 7.4 100 mM, final pH 7.30, 242 mOsm", "result": 4.91, "unit": "mg/mL"},
      {"measurement": "solubility thermodynamic at 24 h", "setting": "[3]; citrate phosphate buffer with sodium chloride", "result": 10.5, "unit": "mg/mL"},
      {"measurement": "solubility at 24 h", "setting": "[3]", "result": "> 10", "unit": "mg/mL"},
      {"measurement": "solubility thermodynamic at 24 h", "setting": "[3]; phosphate buffer with sodium chloride", "result": 11.1, "unit": "mg/mL"},
      {"measurement": "Concentration of Orellanine", "setting": "[4]; NaH2PO4—Na2HPO4 pH 7.4, 50 mM, stirred 24 hours at room temperature, final pH 7.33, 150 mOsm", "result": 4880, "unit": "µg/mL"},
      {"measurement": "solubility thermodynamic at 24 h", "setting": "[4]; Tris-HCl buffer", "result": 4.59, "unit": "mg/mL"},
      {"measurement": "solubility thermodynamic at 24 h", "setting": "[4]; citrate phosphate buffer", "result": 5.44, "unit": "mg/mL"},
      {"measurement": "solubility thermodynamic at 24 h", "setting": "[4]; phosphate buffer", "result": 4.56, "unit": "mg/mL"},
      {"measurement": "Killing of human renal cancer cells", "setting": "[5]", "result": "killed them with great efficiency"},
      {"measurement": "solubility thermodynamic at 24 h", "setting": "[6]; acetate buffer, pH 4.5, aqueous buffer", "result": 0.0024, "unit": "mg/mL"},
      {"measurement": "solubility thermodynamic at 24 h", "setting": "[6]; phosphate buffer, pH 5.8, aqueous buffer", "result": 0.0299, "unit": "mg/mL"},
      {"measurement": "solubility thermodynamic at 24 h", "setting": "[6]; phosphate buffer, pH 6.8, aqueous buffer", "result": 0.622, "unit": "mg/mL"},
      {"measurement": "solubility thermodynamic at 24 h", "setting": "[6]; phosphate buffer, pH 7.4, aqueous buffer", "result": 1.72, "unit": "mg/mL"}
    ]}
  ]
}
